This note sets out measurements from paper PMC7232676, “Fragment-Based Design of Mycobacterium tuberculosis InhA Inhibitors” (Journal of Medicinal Chemistry, 2020).

pIC50: −log10 of the molar value. Where two headings read alike, the source gives them in different places.

The target in experiment [1] is T1, InhA (Mycobacterium tuberculosis, UniProt P9WGR1). Put plainly: Differential scanning fluorimetry (fluorescence-based thermal-shift assay). The following applies: for ΔTm (thermal shift of InhA): fragments 5 mM, InhA 10 μM, NAD+ 1 mM. The class given is binding. How it is done:
Differential scanning fluorimetry (DSF) was used to screen an in-house library of 800 rule-of-three-compliant fragments. A saturating concentration of the cofactor in oxidized form (1 mM NAD^+) was used in all the experiments to ensure that the cofactor binding site would be occupied by NAD^+ and that fragments would not bind there. […] Upon screening of the fragment library, a hit was defined where the melting point was increased by at least +3 °C at a concentration of 5 mM (Figure 1a).
The substrate binding regions of InhA are divided into three sites: site I, site II, and site III.
Differential scanning fluorimetry was used to screen a library of 800 fragments. The assay was performed in a 96 well plate format using a CFX Connect (Bio-Rad). Each well contained a solution of 10 μM InhA, 1 mM NAD^+, HEPES (50 mM), NaCl (150 mM), pH 7.5, 5× Sypro Orange, 5% DMSO, and fragments at 5 mM. […] Controls were made in quadruplicates for all the experiments.

The target in experiment [2] is T1, InhA. Put plainly: InhA enzymatic assay (NADH oxidation at 340 nm, 2-trans-octanoyl-CoA substrate). The format is biochemical. The following applies: for LE (ligand efficiency): LE = (1.37 × pIC50)/HA; for pIC50: average of three experiments. How it is done:
The identified fragment hits were further evaluated by an InhA enzymatic assay using 2-trans-octanoyl-CoA as a substrate.[22]
The carboxylic acid in fragment 1 (P1) was replaced by an isosteric sulfonamide as a linker to synthesize compound 6 (Figure 2b). Docking experiments with Glide XP[23] […] All the synthesized compounds were tested at a concentration of 100 μM using the InhA enzymatic assay.
InhA activity was followed by a colorimetric assay that measured the oxidation of NADH at 340 nm in the presence of 2-trans-octanoyl-CoA as described before in a buffer that contained 30 mM PIPES, pH 7.5, 50 mM NaCl, 0.1 mM EDTA, and 100 nM InhA.[26] This was preincubated for 10 min at room temperature with 0.25 mM NADH and varying concentrations of the compounds with 1% (v/v) DMSO in a 150 μL reaction volume. The reaction was started by the addition of 2-trans-octanoyl-CoA at a final concentration of 1.5 mM, prepared as described previously.[22] Reactions were followed for 20 min using a plate reader (CLARIOstar, BMG LABTECH).

The test system of a further experiment is M. tuberculosis H37Ra. The experiment in a line: Growth inhibition of M. tuberculosis H37Ra, 48 h cultivation. The format is cell-based, Mycobacterium tuberculosis. The following applies: for inhibition at 200 µM: Mycobacterium tuberculosis, H37RA, 200 μM compound in the media, 48 h cultivation. As for the experimental part:
Further analysis of the effect on the synthesis of mycolic acids by metabolic labeling[24],[25] of the model strain M. tuberculosis H37Ra with ^14C acetate was also explored. A 48 h cultivation in the presence of 200 μM of the compounds in the media led to 84% growth inhibition for compound 19; 40% and 33% growth inhibition for compounds 14 and 23, respectively; 38% growth inhibition for compound 24 and isoniazid; 23% growth inhibition for compounds 25 and 26.
The culture of M. tuberculosis H37Ra was grown statically at 37 °C in Middlebrook 7H9 broth (Difco) supplemented with albumin–dextrose–catalase and 0.05% Tween 80. When the culture reached the OD600nm value of 0.290, it was divided into 10 mL aliquots and tested compounds dissolved in DMSO were added at 200 μM final concentrations, while isoniazid that served as a control inhibitor was at 40 μM. The final concentration of DMSO in each culture was at 1%. After 24 h of cultivation with shaking (120 rpm) in the presence of tested inhibitors, ^14C acetate (specific activity of 106 mCi/mmol) was added at a final concentration of 0.5 μCi/mL and the cells were cultivated for the next 24 h.

The mark [3] stands for this setting: 100 μM compound, read-out: Inh % (inhibition percentage of InhA).
The mark [4] stands for this setting: supplementary CSV, read-out: % inhibition.

T1 sequence (P9WGR1 whole entry, looked up, the tested form may be a part): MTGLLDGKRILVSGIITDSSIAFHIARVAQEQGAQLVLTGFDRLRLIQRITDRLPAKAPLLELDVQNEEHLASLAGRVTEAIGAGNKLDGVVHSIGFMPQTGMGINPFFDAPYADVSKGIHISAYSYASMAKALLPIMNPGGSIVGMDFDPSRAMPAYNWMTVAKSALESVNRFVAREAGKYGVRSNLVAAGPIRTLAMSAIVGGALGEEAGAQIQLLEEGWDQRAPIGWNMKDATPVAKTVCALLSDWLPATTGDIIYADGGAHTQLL

For `O=C(O)/C=C/c1cccc(C(F)(F)F)c1` [compound 1, (E)-3-(3-(trifluoromethyl)phenyl)acrylic acid], the DTm on InhA [1] came out at 3.2 oC. Further, the “Inhibition of InhA” value on InhA [2] (2 mM fragment, triplicate) is 0%.

Regarding `O=C(O)c1ccccc1C(=O)c1ccc(Cl)c([N+](=O)[O-])c1` [compound 2, 2-(4-chloro-3-nitrobenzoyl)benzoic acid], at InhA [1], the DTm came to 4.2 oC and the “ΔTm (thermal shift of InhA)” value is “+4.2 °C”.

On to `O=C(O)c1cc2ccccc2cc1O` [compound 3, 3-hydroxy-2-naphthoic acid], for which, on InhA [1], the DTm came out at 4.2 oC and the “ΔTm (thermal shift of InhA)” value was “+4.2 °C”.

On to `O=C(O)CCc1cccc(Cl)c1` [compound 4, 3-(3-chlorophenyl)propanoic acid], for which, on InhA [1], the DTm is listed as 3 oC and the “ΔTm (thermal shift of InhA)” value is “+3.0 °C”.

On to `O=C(O)c1ccccc1-n1cccn1` [compound 5, 2-(1H-pyrazol-1-yl)benzoic acid], for which, on InhA [1], the DTm worked out at 6 oC and the “ΔTm (thermal shift of InhA)” value is “+6.0 °C”.

Turning to `O=S(=O)(/C=C/c1cccc(C(F)(F)F)c1)Nc1ccccc1` [compound 6, (E)-N-Phenyl-2-(3-(trifluoromethyl)phenyl)ethene-1-sulfonamide], the inhibition at 100 µM at InhA [2] (setting [3]) and at InhA [2] (setting [4]) was 54% each time.

On to `O=S(=O)(/C=C/c1cccc(C(F)(F)F)c1)NC1CCNCC1` [compound 7, (E)-N-(Piperidin-4-yl)-2-(3-(trifluoromethyl)phenyl)ethene-1-sulfonamide], for which the inhibition at 100 µM at InhA [2] (setting [3]) and at InhA [2] (setting [4]) was 15% each time.

As to `O=S(=O)(/C=C/c1cccc(C(F)(F)F)c1)Nc1cccnc1` [compound 8, (E)-N-(Pyridin-3-yl)-2-(3-(trifluoromethyl)phenyl)ethene-1-sulfonamide], the inhibition at 100 µM on InhA [2] (setting [3]) and at InhA [2] (setting [4]) was 17% throughout.

For the compound `COC(=O)c1ccc(NS(=O)(=O)/C=C/c2cccc(C(F)(F)F)c2)cc1` [compound 9, Methyl-(E)-4-((2-(3-(trifluoromethyl)phenyl)vinyl)sulfonamido)benzoate], the inhibition at 100 µM on InhA [2] (setting [3]) and on InhA [2] (setting [4]) was 0% each time.

As to `CC(C)(C)OC(=O)Nc1ccc(NS(=O)(=O)/C=C/c2cccc(C(F)(F)F)c2)cc1` [compound 10, tert-Butyl-(E)-(4-((2-(3-(trifluoromethyl)phenyl)vinyl)sulfonamido)phenyl)carbamate], the inhibition at 100 µM on InhA [2] (setting [3]) and on InhA [2] (setting [4]) was 11% throughout.

With `Nc1ccc(NS(=O)(=O)/C=C/c2cccc(C(F)(F)F)c2)cc1` [compound 11, (E)-N-(4-Aminophenyl)-2-(3-(trifluoromethyl)phenyl)ethene-1-sulfonamide], the inhibition at 100 µM at InhA [2] (setting [3]) and at InhA [2] (setting [4]) was 6% in each case.

For the compound `COc1ccc(NS(=O)(=O)/C=C/c2cccc(C(F)(F)F)c2)cc1` [compound 12, (E)-N-(4-Methoxyphenyl)-2-(3-(trifluoromethyl)phenyl)ethene-1-sulfonamide], the inhibition at 100 µM on InhA [2] (setting [3]) and at InhA [2] (setting [4]) was 15% throughout.

With `COC(=O)Cc1ccc(NS(=O)(=O)/C=C/c2cccc(C(F)(F)F)c2)cc1` [compound 13, Methyl-(E)-2-(4-((2-(3-(trifluoromethyl)phenyl)vinyl)sulfonamido)phenyl)acetate], the inhibition at 100 µM at InhA [2] (setting [3]) and at InhA [2] (setting [4]) was 24% each time.

As to `NCc1ccc(NS(=O)(=O)/C=C/c2cccc(C(F)(F)F)c2)cc1` [compound 14, (E)-N-(4-(Aminomethyl)phenyl)-2-(3-(trifluoromethyl)phenyl)ethene-1-sulfonamide], the inhibition at 100 µM on InhA [2] (setting [3]) and at InhA [2] (setting [4]) was > 90% each time. Also, the “LE (ligand efficiency)” value on InhA [2] was 0.29. Also, on InhA [2], the pIC50 (commonly −log10 of the IC50, conventionally taken in molar units) is 5.05. At InhA [2] (compared to compound 6), the “fold increase of the potency from compound 6” value was 10 fold. The inhibition (in general, how much of the control response was suppressed) at 200 µM in the experiment with M. tuberculosis H37Ra was 40%.

`CNCc1ccc(NS(=O)(=O)/C=C/c2cccc(C(F)(F)F)c2)cc1` [compound 15, (E)-N-(4-((Methylamino)methyl)phenyl)-2-(3-(trifluoromethyl)phenyl)ethene-1-sulfonamide]: the inhibition at 100 µM on InhA [2] (setting [3]) and at InhA [2] (setting [4]) was 0% each time.

For the compound `CC(=O)NCc1ccc(NS(=O)(=O)/C=C/c2cccc(C(F)(F)F)c2)cc1` [compound 16, (E)-N-(4-((2-(3-(Trifluoromethyl)phenyl)vinyl)sulfonamido)benzyl)acetamide], the inhibition at 100 µM on InhA [2] (setting [3]) and on InhA [2] (setting [4]) was 25% in each case.

As to `O=C(O)c1ccc(NS(=O)(=O)/C=C/c2cccc(C(F)(F)F)c2)cc1` [compound 17, (E)-4-((2-(3-(Trifluoromethyl)phenyl)vinyl)sulfonamido)benzoic Acid], the inhibition at 100 µM at InhA [2] (setting [3]) and at InhA [2] (setting [4]) was 0% in each case.

Regarding `O=S(=O)(/C=C/c1cccc(C(F)(F)F)c1)Nc1ccc2c(c1)CNCC2` [compound 20, (E)-N-(1,2,3,4-Tetrahydroisoquinolin-7-yl)-2-(3-(trifluoromethyl)phenyl)ethene-1-sulfonamide], the inhibition at 100 µM on InhA [2] (setting [3]) and on InhA [2] (setting [4]) was 0% throughout.

For `CC(C)(C)c1ccc(S(=O)(=O)Nc2cccc(CN)c2)cc1` [compound 21, N-(3-(Aminomethyl)phenyl)-4-(tert-butyl)benzenesulfonamide], the inhibition at 100 µM at InhA [2] (setting [3]) and at InhA [2] (setting [4]) was 40% in each case.

For `NCc1cccc(NS(=O)(=O)CCc2cccc3ccccc23)c1` [compound 22, N-(3-(Aminomethyl)phenyl)-2-(naphthalen-1-yl)ethane-1-sulfonamide], the inhibition at 100 µM on InhA [2] (setting [3]) and on InhA [2] (setting [4]) was 17% in each case.

Take `Cc1c(S(=O)(=O)Nc2cccc(CN)c2)sc2ccc(Cl)cc12` [compound 23, N-(3-(Aminomethyl)phenyl)-5-chloro-3-methylbenzo[b]thiophene-2-sulfonamide]: the inhibition at 100 µM on InhA [2] (setting [3]) and at InhA [2] (setting [4]) was > 90% in each case. Besides, in the experiment with M. tuberculosis H37Ra, the “activity against M. tuberculosis” value is “inactive”. In addition, the inhibition at 200 µM in the experiment with M. tuberculosis H37Ra worked out at 33%.

With `Cc1c(S(=O)(=O)Nc2cccc(CN)c2)sc2ccc(F)cc12` [compound 24, N-(3-(Aminomethyl)phenyl)-5-fluoro-3-methylbenzo[b]thiophene-2-sulfonamide], the inhibition at 100 µM at InhA [2] (setting [3]) was > 90%. For the same compound, at InhA [2], the “LE (ligand efficiency)” value amounted to 0.40 and the pIC50 was 6.60. Also, on InhA [2] (setting [4]), the inhibition at 100 µM was > 90%. Further, the inhibition at 200 µM in the experiment on M. tuberculosis H37Ra is 38%.

`NCc1cccc(NS(=O)(=O)c2cc3ccccc3s2)c1` [compound 25, N-(3-(Aminomethyl)phenyl)benzo[b]thiophene-2-sulfonamide]: the inhibition at 100 µM on InhA [2] (setting [3]) and at InhA [2] (setting [4]) was > 90% throughout. For the same compound, the pIC50 at InhA [2] was 5.22. Testing at 200 µM in the experiment on M. tuberculosis H37Ra gave an inhibition of 23%.

Turning to `NCc1cccc(NS(=O)(=O)c2cc3ccccc3o2)c1` [compound 26, N-(3-(Aminomethyl)phenyl)benzofuran-2-sulfonamide], the inhibition at 100 µM at InhA [2] (read-out: Inh % (inhibition percentage of InhA)) and on InhA [2] (setting [4]) was 66% in each case. This compound had an inhibition at 200 µM with M. tuberculosis H37Ra of 23%.

With “(E)-4-((2-(3-(Trifluoromethyl)phenyl)vinyl)sulfonamido)benzamide [compound 18]”, the “Inh % (inhibition percentage of InhA)” value on InhA [2] (100 μM compound) is 0%. The % inhibition – broadly, the percentage by which the read-out fell short of the control – on InhA [2] (supplementary CSV) is reported as 0%.
